Results reported in publication PMC10628858, “Investigation of new ferrocenyl-artesunate derivatives as antiparasitics” (Dalton Transactions (Cambridge, England : 2003), 2023).

How the values were obtained:
P. falciparum, NF54 = assay: P. falciparum growth inhibition assay (Malstat); format: cell-based, Plasmodium falciparum; conditions: 72 h, maximum concentration tested 6000 nM, three independent experiments in triplicate, ± SEM; read-out: IC50 against P. falciparum, NF54
Experimental: The antimalarial activities of C1 to C4 and F1 to F3 were determined against the wild-type drug sensitive strain of P. falciparum, NF54. […]. Further, a close link between activity and oxidation potentials of the drugs was found. The lower the oxidation potential of the ferrocene moiety, the higher the activity of the final compound, giving directions for future compound development.
The drugs were prepared as 10 mM stocks in sterile DMSO. The drugs were then diluted using freshly prepared growth medium to the desired testing concentrations. Chloroquine and artesunate were used as standards. A full dose–response was preformed using a 96-well plate assay and the IC50 values determined. The maximum concentration tested was 6 μM which was then serially diluted 2-fold in growth media. The plates were incubated at 37 °C for 72 h at 3% O2 and 4% CO2. After 72 h the wells were resuspended and 15 μL of the suspension was transferred to a duplicate plate containing 100 μL of Malstat reagent and 25 μL of nitroblue tetrazolium solution. The plates were allowed 20 minutes in the dark to develop and the absorbance of each well was measured using UV-Vis at 620 nm.

T. gondii = assay: Determination of intracellular ROS levels with CellROX by flow cytometry; format: cell-based, Toxoplasma gondii; conditions: 5 μM, 6 hours, 50 000 parasites, vs untreated
Experimental: Since both ferrocene and artesunate are able to generate ROS, we attempted to quantify the intracellular ROS levels in the parasite using CellROX, a compound which fluoresces in the presence of ROS. Treatment with artesunate was included as positive control as previous studies have linked artesunate treatment to ROS accumulation.[44] The parasites were treated with 5 μM of complexes C1, C3 and C4, and incubated for 6 hours. […] Since T. gondii rely predominately on heme biosynthesis as opposed to incorporation of heme from host hemoglobin, the concentration of iron present in the parasite is lower.[45] But, by incorporating an iron center in the molecule the slower activation may be circumvented leading to quicker cell death and a decreased CellROX reading.
Fig. 5 CellROX fluorescence quantified by flow cytometry from 50 000 parasites. T. gondii were untreated (grey) or treated for 6 hours with 5 μM compounds (blue) or artesunate (red) as a positive control.
Intracellular parasites were treated with 5 μM of the drug and incubated at 37 °C with 5% CO2 for either 18 hours or 6 hours. The parasites were released from host cells by scraping and syringing followed by passing through 3 μm filters to remove host-cell debris. The parasites were spun down at 6000 RPM for 10 minutes and resuspended in 500 μL PBS. 100 μL of the parasite suspension was placed in a FACS tube and a stock solution of CellROX dye in PBS (1 : 125 dilution) was added to this. This was then incubated in the dark at 37 °C for 1 hour and then read using a BD Celesta. Parasites were gated on forward and side scatter and on mNeonGreen fluorescence and histograms of Cy5 signal presented. Data analysis was performed using Flowjo.

T. gondii (ΔKu80:mNeon) = assay: Immunofluorescence microscopy of intracellular T. gondii; format: cell-based, Toxoplasma gondii; conditions: 5 μM; for Parasite replication: 24 hours
Experimental: To determine morphological changes associated with drug treatment, immunofluorescence microscopy of T. gondii was performed after 24 hours or 48 hours of drug treatment at a concentration of 5 μM.
Since artemisinin has previously been reported to accumulate in the membrane of P. falciparum due to its affinity for neutral lipids,[46] it was hypothesized that the complex C3 may be doing the same thing in T. gondii. Then, upon activation of the endoperoxide bridge, this causes oxidative damage to the membranes, leading to disruption and release of parasite cytosolic contents.
Coverslips preseeded with HFF cells were infected with ΔKu80:mNeonGreen and incubated at 37 °C for 1 h to allow invasion. Following this, drug (5 μM) was added, and the plates placed back in the incubator for 24 hours. Cells were washed with 1 mL of sterile PBS, which was then again removed and 500 μL of 4% paraformaldehyde (PFA) was added and incubated at room temperature for 20 minutes. The PFA was removed, cell washed once with PBS. Cells were blocked and permeabilisated with incubation 500 μL of 2% bovine serum albubin (BSA), 0.5% Triton X-100 in PBD overnight at 4 °C. The coverslips were then removed and submerged in distilled water three times and mounted using Fluoromount with DAPI (Southern Biotech). The slides were then visualized using a DeltaVision fluorescent microscope (Applied Precision) and processed using SoftWoRx and FIJI software.

[1] = Stability on HPLC in an aqueous environment; format: physicochemical; conditions: aqueous environment (H2O/MeOH)
Experimental: Resonances belonging to the unsubstituted cyclopentadienyl ring of the ferrocene appeared as a singlet between 4.17 and 4.20 ppm and two triplets which correspond to the substituted ring.
Purity analysis was performed on an Agilent 1260 Infinity II high-performance liquid chromatography (HPLC) system with a DAD detector. A Kinetex C18 100 Å column was used with dimensions, 150 × 4.6 mm with a 5 μm […]. A mobile phase of (A) H2O (B) MeOH was used at gradients of t = 0 min 10% B, t = 15 min 80% B, t = 35 min 80% B, t = 37 min 10% B and t = 45 min 10% B over a 45 min period. The flow rate was set to 1 mL min^−1, and the detection wavelength was set at 260 nm with the reference wavelength at 360 nm. 50 μL sample was injected, with needle washes of MeOH between injections. The peaks were manually integrated to gain the percentage area. Samples were dissolved in 10% MeOH/90% H2O at 100 μM concentrations.

[2] = test system: P. falciparum 3D7 (chloroquine sensitive); parameters: method as in doi:10.1016/j.jorganchem.2023.122633; conditions: chloroquine sensitive strain; cited from earlier work
[3] = test system: P. falciparum Dd2 (chloroquine resistant); parameters: method as in doi:10.1016/j.jorganchem.2023.122633; conditions: chloroquine resistant strain; cited from earlier work

Row | SMILES | IC50 (P. falciparum, NF54) [µM] | Change in CellROX signal (intracellular ROS) (T. gondii) | Parasite replication (T. gondii (ΔKu80:mNeon)) | Stability on HPLC [1] | Parasite morphology (T. gondii (ΔKu80:mNeon); 24 hours or 48 hours) | Activity against P. falciparum 3D7 [2] [nM] | Activity against P. falciparum Dd2 [3] [nM]
1 | CC1CCC2C(C)C(OC(=O)CCC(=O)OCCNC(=O)[c-]3cccc3)OC3OC4(C)CCC1C32OO4.[Fe+2].c1cc[cH-]c1 (stereo not shown) [Compound C1] | 3.4 ± 0.53 | no change in CellROX signal | completely block replication | – | – | – | –
2 | CC1CCC2C(C)C(OC(=O)CCC(=O)NCCNC(=O)[c-]3cccc3)OC3OC4(C)CCC1C32OO4.[Fe+2].c1cc[cH-]c1 (stereo not shown) [Compound C3] | 4.9 ± 0.93 | increase in intracellular ROS | completely block replication | high degree of instability | novel morphology | – | –
3 | CC1CCC2C(C)C(OC(=O)CCC(=O)NC[c-]3cccc3)OC3OC4(C)CCC1C32OO4.[Fe+2].c1cc[cH-]c1 (stereo not shown) [Compound C4] | 0.012 ± 0.002 | no change in CellROX signal | – | high degree of instability | – | 6.1 | 3.0
